# In ChEMBL document CHEMBL3390842 (Medchemcomm, 2012):
# Activity calls are given as the source filed them. The rule behind the calls is not given here.
# Tests used:
# [1] = molecular target: T1, G-protein coupled receptor 35 (Homo sapiens, UniProt Q9HC97); type: cell-based, HT-29
# [2] = molecular target: T1, G-protein coupled receptor 35; type: cell-based, U2OS
# [3] = molecular target: T1, G-protein coupled receptor 35; experiment: Agonist activity at GPR35 in human HT-29 cells assessed as induction of whole cell dynamic mass redistribution at 128 uM after 50 mins by resonant waveguide grating biosensor analysis in presence of GPR35 antagonist ML-145; type: cell-based
# [4] = molecular target: T1, G-protein coupled receptor 35; experiment: Agonist activity at GPR35 in human HT-29 cells assessed as induction of whole cell dynamic mass redistribution at 32 uM after 50 mins by resonant waveguide grating biosensor analysis in presence of GPR35 antagonist ML-145; type: cell-based
# T1 sequence (Q9HC97 whole entry): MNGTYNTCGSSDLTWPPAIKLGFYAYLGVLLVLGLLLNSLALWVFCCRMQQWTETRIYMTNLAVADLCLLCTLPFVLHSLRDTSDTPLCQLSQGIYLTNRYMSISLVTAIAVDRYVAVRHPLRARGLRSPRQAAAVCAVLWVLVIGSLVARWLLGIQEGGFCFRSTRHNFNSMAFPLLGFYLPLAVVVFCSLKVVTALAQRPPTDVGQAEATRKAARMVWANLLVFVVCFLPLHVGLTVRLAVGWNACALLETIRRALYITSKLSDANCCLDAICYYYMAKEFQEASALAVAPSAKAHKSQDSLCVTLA
SMILES,EC50 [1],EC50 [2],Activity [3],Activity [4]
CC(=O)C(=Cc1cc(O)c(O)c([N+](=O)[O-])c1)C(C)=O [NITECAPONE],0.82 µM,17.1 µM,–,–
O=[N+]([O-])c1ccc(O)c([N+](=O)[O-])c1,–,–,Active,–
CCN(CC)C(=O)/C(C#N)=C/c1cc(O)c(O)c([N+](=O)[O-])c1 [ENTACAPONE],5.66 µM,65.6 µM,–,–
O=[N+]([O-])c1cc(O)c(O)c([N+](=O)[O-])c1,–,–,–,inactive
O=C(c1cc(O)c(O)c([N+](=O)[O-])c1)c1ccccc1F,8.66 µM,54.4 µM,–,Active
